Data: ChEMBL document CHEMBL3217662 (Medchemcomm, 2011)

What was measured:
[1] = system: Human immunodeficiency virus 1; test: Antiviral activity against wild type HIV1 3B infected in human MT2 cells assessed as virus-induced cytopathic effect after 5 days by XTT assay; assay type: functional, organism-based; settings: Human immunodeficiency virus 1, 3B, MT2, 120 h
[2] = system: Human immunodeficiency virus 1; test: Fold resistance, ratio of EC50 for HIV1 3B harboring protease M46I/I50V mutant infected in human MT2 cells to EC50 for wild type HIV1 3B infected in human MT2 cells; assay type: functional
Protease = Protease (Human immunodeficiency virus 1, UniProt Q9YQ12); test: Inhibition of HIV1 protease using fluorogenic hexapeptide substrate (2-aminobenzoyl)Thr-Ile-Nle-(p-nitro)Phe-Gln-Arg by fluorimeter
Sequence of Protease (Q9YQ12 whole entry): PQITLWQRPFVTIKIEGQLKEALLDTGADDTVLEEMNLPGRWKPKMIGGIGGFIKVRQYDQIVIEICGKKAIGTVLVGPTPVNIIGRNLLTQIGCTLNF

[3] = system: Human immunodeficiency virus 1; test: Fold resistance, ratio of EC50 for HIV1 3B harboring protease I84V/L90M mutant infected in human MT2 cells to EC50 for wild type HIV1 3B infected in human MT2 cells; assay type: functional
[4] = system: Human immunodeficiency virus 1; test: Antiviral activity against wild type HIV1 3B infected in human MT2 cells assessed as virus-induced cytopathic effect after 5 days by XTT assay relative to in the presence of 50% pooled human serum; assay type: functional
[5] = Intrinsic clearance in human liver microsomes; assay type: ADME; settings: read-out: CLH
[6] = (§1) Intrinsic clearance in human liver microsomes in presence of 1 uM COBI; assay type: ADME; settings: liver microsomes, with COBI 1 uM, read-out: CLH
[7] = Cytotoxicity against human HepG2 cells assessed as reduction in cell viability after 5 days by XTT assay; assay type: cell-based
[8] = Cytotoxicity against human MT2 cells assessed as reduction in cell viability after 5 days by XTT assay; assay type: cell-based
[9] = (§2) Intrinsic clearance in human liver microsomes in presence of 1 uM RTV; assay type: ADME; settings: liver microsomes, with RTV 1 uM, read-out: CLH
[10] = system: Human immunodeficiency virus 1; test: Fold resistance, ratio of EC50 for HIV1 3B harboring protease G48V/I54V/V82S mutant infected in human MT2 cells to EC50 for wild type HIV1 3B infected in human MT2 cells; assay type: functional
[11] = system: Human immunodeficiency virus 1; test: Fold resistance, ratio of EC50 for HIV1 3B harboring protease D30N/54V/L90M mutant infected in human MT2 cells to EC50 for wild type HIV1 3B infected in human MT2 cells; assay type: functional
[12] = system: Human immunodeficiency virus 1; test: Fold resistance, ratio of EC50 for HIV1 3B harboring protease M46I/V82T/L90M mutant infected in human MT2 cells to EC50 for wild type HIV1 3B infected in human MT2 cells; assay type: functional
[13] = system: Human immunodeficiency virus 1; test: Fold resistance, ratio of EC50 for HIV1 3B harboring protease G48V/V82A/I84V/L90M mutant infected in human MT2 cells to EC50 for wild type HIV1 3B infected in human MT2 cells; assay type: functional
Liver microsome [14] = test: as §1; assay type: ADME; settings: microsomes
Liver microsome [15] = test: as §2; assay type: ADME; settings: microsomes
[16] = Oral bioavailability in Beagle dog at 10 mg/kg; assay type: ADME, organism-based, Canis lupus familiaris; settings: in vivo
[17] = system: Human immunodeficiency virus 1; test: Antiviral activity against wild type HIV1 3B infected in human MT2 cells assessed as fold resistance after 11 months incubation; assay type: functional
[18] = Oral bioavailability in Beagle dog at 10 mg/kg in presence of 10 mg/kg COBI; assay type: ADME, organism-based, Canis lupus familiaris; settings: in vivo
[19] = Clearance in Beagle dog at 2 mg/kg, iv over 30 mins; assay type: ADME, organism-based, Canis lupus familiaris; parameters: dose 2 mg/kg, route intravenous; settings: in vivo

Row | Compound | EC50 [1] | Ratio EC50 [2] | Ki (Protease) | Ratio EC50 [3] | Ratio EC50 [4] | CC50 at 120 h [7] | CC50 at 120 h [8] | also measured
1 | COc1ccc(S(=O)(=O)N(CC(C)C)C[C@@H](O)[C@H](Cc2ccc(O)cc2)NC(=O)O[C@H]2CO[C@H]3OCC[C@H]32)cc1 | 6.9 nM | 5.1 | 0.0053 nM | 0.8 |  |  |  | 
2 | CCOP(=O)(OCC)c1ccc(C[C@H](NC(=O)O[C@H]2CO[C@H]3OCC[C@H]32)[C@H](O)CN(CC(C)C)S(=O)(=O)c2ccc(OC)cc2)cc1 | 7.5 nM | 4.5 | 0.0012 nM | 0.5 |  |  |  | 
3 | CCOP(=O)(CCc1ccc(C[C@H](NC(=O)O[C@H]2CO[C@H]3OCC[C@H]32)[C@H](O)CN(CC(C)C)S(=O)(=O)c2ccc(OC)cc2)cc1)OCC | 2.1 nM | 3.1 | 0.0091 nM | 0.4 | 2.6 |  |  | 
4 | CC(C)CN(C[C@@H](O)[C@H](Cc1ccccc1)NC(=O)O[C@H]1CO[C@H]2OCC[C@H]21)S(=O)(=O)c1ccc(N)cc1 | 2.3 nM |  |  |  |  | 95500 nM | > 100000 nM | microsomal CLint [5]: 30.9 µL/min/mg; microsomal CLint [6]: 0.9 µL/min/mg; microsomal CLint [9]: 1.6 µL/min/mg
5 | COc1ccc(S(=O)(=O)N(CC(C)C)C[C@@H](O)[C@H](Cc2ccc(OCP(=O)(OC)OC)cc2)NC(=O)O[C@H]2CO[C@H]3OCC[C@H]32)cc1 | 18.8 nM |  | 0.0181 nM | 0.3 |  |  |  | 
6 | CC(C)CN(C[C@@H](O)[C@H](Cc1ccccc1)NC(=O)O[C@H]1CCOC1)S(=O)(=O)c1ccc(N)cc1 | 24 nM | 159 | 0.345 nM | 16.3 |  | 98400 nM | > 100000 nM | Ratio EC50 [10]: 0.9; Ratio EC50 [11]: 0.8; Ratio EC50 [12]: 5.9; Ratio EC50 [13]: 20
7 | COC(=O)c1ccc(C[C@H](NC(=O)O[C@H]2CO[C@H]3OCC[C@H]32)[C@H](O)CN(CC(C)C)S(=O)(=O)c2ccc(OC)cc2)cc1 | 0.3 nM | 11 | 0.0054 nM | 1.2 |  |  |  | 
8 | CC(C)c1nc(CN(C)C(=O)N[C@H](C(=O)N[C@@H](Cc2ccccc2)C[C@H](O)[C@H](Cc2ccccc2)NC(=O)OCc2cncs2)C(C)C)cs1 [RITONAVIR] | 32.2 nM |  |  |  |  |  |  | 
9 | COC(=O)N[C@H](C(=O)N[C@@H](Cc1ccccc1)[C@@H](O)CN(Cc1ccc(-c2ccccn2)cc1)NC(=O)[C@@H](NC(=O)OC)C(C)(C)C)C(C)(C)C [ATAZANAVIR] | 2.2 nM | 1.9 | 0.0479 nM | >100 | 2.4 | 26500 nM | 79800 nM | microsomal CLint [5]: 23 µL/min/mg; CLH (Liver microsome [14]): 0.9 µL/min/mg; Ratio EC50 [10]: 127; Ratio EC50 [11]: 141; Ratio EC50 [12]: 43.9; Ratio EC50 [13]: 102; CLH (Liver microsome [15]): 1.4 µL/min/mg
10 | CCOP(=O)(Cc1ccc(C[C@H](NC(=O)O[C@H]2CO[C@H]3OCC[C@H]32)[C@H](O)CN(CC(C)C)S(=O)(=O)c2ccc(OC)cc2)cc1)OCC | 5.9 nM | 36 | 0.0084 nM | 5.8 | 2.4 |  |  | 
11 | Cc1c(O)cccc1C(=O)N[C@@H](CSc1ccccc1)[C@H](O)CN1C[C@H]2CCCC[C@H]2C[C@H]1C(=O)NC(C)(C)C | 4.9 nM | 16.5 | 0.732 nM | >92 | 19.2 | 7400 nM | 19100 nM | Ratio EC50 [10]: 25.4; Ratio EC50 [11]: >68; Ratio EC50 [12]: 26; Ratio EC50 [13]: 30.6
12 | Cc1cccc(C)c1OCC(=O)N[C@@H](Cc1ccccc1)[C@@H](O)C[C@H](Cc1ccccc1)NC(=O)[C@H](C(C)C)N1CCCNC1=O [LOPINAVIR] | 5.6 nM |  |  |  |  | 27800 nM | 67900 nM | microsomal CLint [5]: 544 µL/min/mg; microsomal CLint [6]: 2.7 µL/min/mg; microsomal CLint [9]: 1.6 µL/min/mg
13 | COc1ccc(S(=O)(=O)N(CC(C)C)C[C@@H](O)[C@H](Cc2ccc(OCP(=O)(OC(C)C)OC(C)C)cc2)NC(=O)O[C@H]2CO[C@H]3OCC[C@H]32)cc1 | 1.9 nM | 6 | 0.0057 nM | 1.3 | 3.6 |  |  | 
14 | CC(C)(C)NC(=O)[C@@H]1C[C@@H]2CCCC[C@@H]2CN1C[C@@H](O)[C@H](Cc1ccccc1)NC(=O)[C@H](CC(N)=O)NC(=O)c1ccc2ccccc2n1 | 13.6 nM |  |  |  |  | 12400 nM | 32300 nM | 
15 | COc1ccc(C[C@H](NC(=O)O[C@H]2CO[C@H]3OCC[C@H]32)[C@H](O)CN(CC(C)C)S(=O)(=O)c2ccc(OC)cc2)cc1 | 0.06 nM | 157 |  | 17 |  |  |  | 
16 | CC(C)(C)NC(=O)[C@@H]1CN(Cc2cccnc2)CCN1C[C@@H](O)C[C@@H](Cc1ccccc1)C(=O)N[C@H]1c2ccccc2C[C@H]1O | 12.4 nM |  |  |  |  | 74700 nM | > 100000 nM | 
17 | CCOP(=O)(COc1ccc(C[C@H](NC(=O)O[C@H]2CO[C@H]3OCC[C@H]32)[C@H](O)CN(CC(C)C)S(=O)(=O)c2ccc(OC)cc2)cc1)OCC | 3.5 nM | 2.4 | 0.0081 nM | 0.7 | 2.7 | 61300 nM | > 100000 nM | bioavailability [16]: 6.9%; microsomal CLint [5]: 9.2 µL/min/mg; microsomal CLint [6]: 1 µL/min/mg; Ratio EC50 [10]: 0.1; fold change (FC) [17]: 15; Ratio EC50 [11]: 0.2; bioavailability [18]: 100%; Ratio EC50 [12]: 0.9; Ratio EC50 [13]: 0.6; clearance [19]: 35.5 mL/min/kg; microsomal CLint [9]: 2.6 µL/min/mg
18 | COc1ccc(S(=O)(=O)N(CC(C)C)C[C@@H](O)[C@H](Cc2ccccc2)NC(=O)O[C@H]2CO[C@H]3OCC[C@H]32)cc1 | 0.35 nM |  |  |  |  |  |  | 
